Laboratory results as given in PubChem BioAssay (NCI).
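How tested: cells in 96-well plates exposed to compound for 48 hours at five concentrations. GI50 = concentration required for 50% inhibition of growth. TGI: total growth inhibition.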

How the values were obtained:
Assay in all cases: inhibition of tumour cell growth, NCI panel, 48 h
[1] = system: COLO 205 colon
[2] = system: EKVX NSCLC
[3] = system: HCT-116 colon
[4] = system: HT29 colon
[5] = system: K-562 leukemia
[6] = system: MOLT-4 leukemia
[7] = system: OVCAR-4 ovarian
[8] = system: SK-MEL-5 melanoma
[9] = system: SN12C renal
[10] = system: UACC-257 melanoma

Row | SMILES | TGI [1] [µM] | TGI [2] [µM] | TGI [3] [µM] | TGI [4] [µM] | TGI [5] [µM] | TGI [6] [µM] | TGI [7] [µM] | TGI [8] [µM] | TGI [9] [µM] | TGI [10] [µM] | GI50 [1] [nM] | GI50 [2] [nM] | GI50 [3] [nM] | GI50 [4] [nM] | GI50 [5] [nM] | GI50 [6] [nM] | GI50 [7] [nM] | GI50 [8] [nM] | GI50 [9] [nM] | GI50 [10] [nM]
1 | C/C(=C\COc1ccc2ccc(=O)oc2c1)CCC(=O)C(C)(C)O | 44.4 | > 100 | 32.2 | 52.7 | 46.8 | 67.5 | > 100 | 30.2 | 58.4 | > 100 | – | – | – | – | – | – | – | – | – | –
2 | O=C1CCC(=O)C(C(=O)CCC(=O)Nc2ccc(Cl)cc2)C1 (stereo not drawn) | > 100 | > 100 | > 100 | > 100 | > 100 | > 100 | > 100 | > 100 | > 100 | > 100 | – | – | – | – | – | – | – | – | – | –
3 | Cc1cncc2cccc(S(=O)(=O)N3CCCNC[C@@H]3C)c12 | 18.8 | > 100 | > 100 | > 100 | > 100 | > 96.3 | > 100 | > 100 | > 100 | > 100 | 2850 | 47400 | 7560 | 29300 | 50000 | 20700 | > 100000 | > 64100 | 24800 | > 100000
4 | O=C(Nc1ccc(I)cc1F)c1cc(F)ccc1O | 15.6 | 9.01 | 1.46 | > 100 | > 42.1 | 2.59 | 17.2 | 0.556 | 3.77 | 2.89 | 3880 | 1400 | 352 | 3440 | 407 | 611 | 396 | 229 | 354 | 392
5 | NC(=S)c1cn(C2OC(CO)C(O)C2O)c2ncnc(N)c12 (stereo not drawn) | – | – | > 33.9 | 3.96 | – | 0.261 | 4.21 | 0.975 | 12.5 | 0.571 | – | 250 | 87.6 | 181 | 199 | 38.6 | 81 | 223 | 201 | 166
6 | O=C(CN1CCN(c2cc3c(cc2F)c(=O)c(C(=O)O)cn3C2CC2)CC1)Nc1ccc(C(=O)/C=C/c2ccccc2)cc1 | > 100 | – | 2.68 | 10.3 | > 100 | > 100 | > 100 | 13 | > 100 | 90.8 | 36300 | – | 659 | 2990 | 3070 | 5130 | 9470 | 2740 | 3020 | 3900
7 | COC(=O)[C@@H](C)C[C@H](Cc1ccccc1)NC(=O)c1csc([C@@H](C[C@H](C(C)C)N(C)C(=O)[C@@H](NC(=O)CN(C)C)C2CC2)OC(C)=O)n1 | 0.499 | > 16.5 | > 5.86 | – | > 16.5 | > 16.5 | > 16.5 | 0.434 | > 16.5 | – | 23.1 | 208 | 15.4 | 13 | 2.99 | 50.1 | 1160 | 12.2 | 64.7 | –
8 | COc1cc2ccc(C(=O)O)cc2cc1OC | > 100 | > 100 | > 100 | > 100 | > 100 | > 100 | > 100 | > 100 | > 100 | > 100 | – | – | – | – | – | – | – | – | – | –
9 | Cn1cc(C2=C(c3cn(C)c4cc(Cl)ccc34)C(=O)NC2=O)c2ccccc21 | 0.18 | – | > 20.6 | > 9.62 | > 25 | > 25 | > 25 | 2.39 | > 15.9 | > 25 | 70 | – | 113 | 92.8 | 89 | 345 | 362 | 102 | 145 | 169
10 | Cn1cc(C2=C(c3cccc(Cl)c3)C(=O)NC2=O)c2ccccc21 | 14.4 | – | > 25 | > 25 | > 25 | > 25 | > 25 | > 25 | > 25 | 17.7 | 5650 | – | > 25000 | 10300 | 12600 | 15800 | > 22600 | 10700 | 20600 | 5460
11 | C/C(=N/OCCC(=O)O)C1CC1 | > 100 | > 100 | > 100 | > 100 | > 100 | – | > 100 | > 100 | > 100 | – | – | – | – | – | – | – | – | – | – | –
12 | CCN1CCN(c2nc(NNC(=O)c3cccc(OC)c3)nc(N3CCN(C(c4ccccc4)c4ccccc4)CC3)n2)CC1 | 5.55 | 12.3 | 3.22 | – | > 100 | 4.72 | 5.97 | 3 | 3.36 | 4.99 | 2220 | 2460 | 1610 | – | 2790 | 2030 | 2060 | 1640 | 1620 | 2180
13 | S=C1NC2=C(CCOc3c2ccc2ccccc32)C(c2ccc(Cl)cc2)N1 (stereo not drawn) | > 100 | 86 | – | > 100 | > 100 | > 100 | > 100 | 44.9 | 66 | > 100 | 24500 | 20200 | – | 33500 | 42900 | 25200 | > 100000 | 20000 | 25800 | 45400
14 | C[C@@H]1CC[C@H]2C(CN(C)CC3=C(C(F)(F)F)O[C@@H]4O[C@@]5(C)CC[C@H]6[C@H](C)CC[C@@H]3[C@@]46OO5)=C(C(F)(F)F)O[C@@H]3O[C@@]4(C)CC[C@@H]1[C@]32OO4 | > 100 | – | 32.9 | > 100 | > 42.6 | > 100 | 56.6 | 18.9 | > 100 | > 51.1 | 728 | – | 415 | 2760 | – | > 25400 | 1120 | 1860 | 7470 | 1900
